In the NIST ThermoML archive (doi:10.1021/acs.jced.5b00407):
± gives the expanded uncertainty stated by the source.

Test: mn = molality of the nth substance listed, in mol/kg
Details: 101.3 kPa, Liquid; for viscosity: Capillary tube (Ostwald / Ubbelohde) method; for mass density: Vibrating tube method

O=C([O-])[C@H](O)[C@@H](O)[C@H](O[C@@H]1O[C@H](CO)[C@H](O)[C@H](O)[C@H]1O)[C@H](O)CO.[Na+] [sodium lactobionate] + O
Details	mass density [kg/m3]	viscosity [mPa·s]
288.15 K, m1 = 0.0251	–	1.157 ± 0.015
288.15 K, m1 = 0.0502	1010.5 ± 0.9	1.177 ± 0.016
288.15 K, m1 = 0.0753	1015.2 ± 0.9	1.211 ± 0.016
288.15 K, m1 = 0.1	1020.1 ± 0.9	1.257 ± 0.017
288.15 K, m1 = 0.126	1024.5 ± 0.9	1.286 ± 0.017
288.15 K, m1 = 0.151	1029.1 ± 0.9	1.332 ± 0.017
288.15 K, m1 = 0.176	1034.1 ± 0.9	1.374 ± 0.018
288.15 K, m1 = 0.201	1039 ± 0.9	1.432 ± 0.019
293.15 K, m1 = 0.0251	–	1.018 ± 0.013
293.15 K, m1 = 0.0502	1009.1 ± 0.9	1.036 ± 0.014
293.15 K, m1 = 0.0753	1013.9 ± 0.9	1.066 ± 0.014
293.15 K, m1 = 0.1	1018.9 ± 0.9	1.106 ± 0.015
293.15 K, m1 = 0.126	1023.3 ± 0.9	1.132 ± 0.015
293.15 K, m1 = 0.151	1028.1 ± 0.9	1.171 ± 0.015
293.15 K, m1 = 0.176	1033 ± 0.9	1.208 ± 0.016
293.15 K, m1 = 0.201	1037.7 ± 0.9	1.26 ± 0.017
298.15 K, m1 = 0.0251	–	0.9041 ± 0.012
298.15 K, m1 = 0.0502	1007.6 ± 0.9	0.9201 ± 0.012
298.15 K, m1 = 0.0753	1012.6 ± 0.9	0.9457 ± 0.013
298.15 K, m1 = 0.1	1017.7 ± 0.9	0.9824 ± 0.013
298.15 K, m1 = 0.126	1022.1 ± 0.9	1.006 ± 0.013
298.15 K, m1 = 0.151	1026.9 ± 0.9	1.041 ± 0.014
298.15 K, m1 = 0.176	1031.8 ± 0.9	1.074 ± 0.014
298.15 K, m1 = 0.201	1036.4 ± 0.9	1.119 ± 0.015
303.15 K, m1 = 0.0251	–	0.8091 ± 0.011
303.15 K, m1 = 0.0502	1006.2 ± 0.9	0.8233 ± 0.011
303.15 K, m1 = 0.0753	1011.2 ± 0.9	0.8464 ± 0.011
303.15 K, m1 = 0.1	1016.4 ± 0.9	0.8796 ± 0.012
303.15 K, m1 = 0.126	1020.8 ± 0.9	0.9001 ± 0.012
303.15 K, m1 = 0.151	1025.5 ± 0.9	0.9321 ± 0.012
303.15 K, m1 = 0.176	1030.3 ± 0.9	0.9614 ± 0.013
303.15 K, m1 = 0.201	1035.1 ± 0.9	1.002 ± 0.013
308.15 K, m1 = 0.0251	–	0.7289 ± 0.0096
308.15 K, m1 = 0.0502	1004.5 ± 0.9	0.7415 ± 0.0098
308.15 K, m1 = 0.0753	1009.7 ± 0.9	0.7623 ± 0.01
308.15 K, m1 = 0.1	1014.9 ± 0.9	0.7921 ± 0.01
308.15 K, m1 = 0.126	1019.4 ± 0.9	0.8111 ± 0.011
308.15 K, m1 = 0.151	1023.9 ± 0.9	0.8399 ± 0.011
308.15 K, m1 = 0.176	1028.8 ± 0.9	0.8655 ± 0.011
308.15 K, m1 = 0.201	1033.5 ± 0.9	0.9029 ± 0.012
313.15 K, m1 = 0.0251	–	0.6612 ± 0.0087
313.15 K, m1 = 0.0502	1003.1 ± 0.9	0.6729 ± 0.0089
313.15 K, m1 = 0.0753	1008.1 ± 0.9	0.692 ± 0.0092
313.15 K, m1 = 0.1	1013.3 ± 0.9	0.7187 ± 0.0096
313.15 K, m1 = 0.126	1017.8 ± 0.9	0.7357 ± 0.0098
313.15 K, m1 = 0.151	1022.1 ± 0.9	0.7622 ± 0.01
313.15 K, m1 = 0.176	–	0.7851 ± 0.01
313.15 K, m1 = 0.201	–	0.8191 ± 0.011
